IC50 and half-life data for 11 molecules are collected here from patent US12018011B2, “Macrocyclic compounds and compositions, and methods of preparing and using the same” (Kura Oncology, Inc., priority 2021, dated 2024).

Some results are limits rather than exact numbers.

Data set [1] concerns the target T1, Recombinant human farnesyl transferase (FTase) (Homo sapiens, UniProt P49356).
T1 construct: purchased Crelux (Martinsried, Germany)
Kind of data set: FTase fluorescence assay (farnesylation of dansyl-GCVLS peptide). Format: biochemical. Particulars: recombinant human FTase 2.5 nM, Dansyl-GCVLS 85 nM, FPP 30 nM, 30° C., 50 minutes.

Data set [2] deals with T2, geranylgeranyl transferase type-1 (GGTase) (Homo sapiens, UniProt P53609).
T2 construct: purchased Crelux (Martinsried, Germany)
Kind of data set: GGTase fluorescence assay (dansyl-GCVLL peptide, GGPP). Format: biochemical. Particulars: GGTase 25 nM, Dansyl-GCVLL 10 μM, GGPP 10 μM, 30° C., 120 minutes. The text has this:
T24/83 cell line was purchased from the European Collection of Authenticated Cell Cultures (Salisbury, UK). Recombinant human farnesyl transferase (FTase) and geranylgeranyl transferase type-1 (GGTase) were obtained from Crelux (Martinsried, Germany). Dansyl labelled GCVLS peptide was purchased from Bachem (Torrance, CA), and Dansyl labelled GCVLL peptide was purchased from Bio Synthesis (Lewisville, TX). Farnesyl Pyrophosphate (FPP) and Geranylgeranyl pyrophosphate (GGPP) were purchased from Cayman (Ann Arbor, MI).
Geranylgeranyl transferase (GGTase) is a closely related enzyme to farnesyl transferase (FTase). The two enzymes share a common regulatory chain but have distinct individual enzymatic domains. GGTase catalyses the addition of an alternative prenylated side chain to some of the same proteins that may also be farnesylated. Thus, selective inhibitory activity against FTase relative to GGTase is a critical characteristic for FTase inhibitors.
The IC50 value of the compounds disclosed herein as inhibitors of Ftase and/or GGTase, was determined by measuring the concentration (provided in nM) necessary to achieve inhibition of enzyme activity by 50% (IC50). […] Compounds having a low IC50 value against FTase, for example an IC50 (FTase)<100 nM, such as an IC50 (FTase)<10 nM, are preferred. Compounds having a low IC50 value against FTase and a high IC50 value against GGTase, for example an IC50 (FTase)<100 nM, such as an IC50 (FTase)<10 nM, and an IC50 (GGTase)>100 nM, are potent and selective inhibitors of FTase, and are particularly preferred.
The inhibition activities of the compounds disclosed herein against Ftase and GGTase were measured in the respective fluorescence assays as follows:
For the GGTase assay, GGTase (25 nM), Dansyl labelled GCVLL peptide (10 μM), GGPP (10 μM) and inhibitor were mixed in assay buffer (50 mM Tris, pH 7.5, 10 mM magnesium chloride, 10 μM zinc chloride, 0.08% CHAPS, 5 mM dithiothreitol) and incubated in a total volume of 20 μL at 30° C. for 120 minutes.
For both the FTase assay and GGTase assay, fluorescence intensity was detected (excitation at 340 nm and emission at 486 nm) using EnVision (PerkinElmer; Waltham, MA), IC50 determinations were performed using a sigmoidal dose-response model with Xlfit software (IDBS, Inc.; Boston, MA), and tipifarnib was used as a positive control. All the assay plates for each assay passed the QC criteria (S/B, Z factor).

In another data set the test system is T24/83 cells. Kind of data set: T24/83 cell proliferation assay (CellTiter-Glo). Format: cell-based. Particulars: Homo sapiens, 96 h, 4 days. The procedure, abridged:
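HRAS-mutant T24/83 bladder carcinoma cells seeded at 100 cells/well and grown with inhibitor for 4 days at 37 °C; 0.7% DMSO negative control, 100 μM tipifarnib positive control. Viability by CellTiter-Glo luminescence.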

Data set [3] can be described thus: Metabolic stability in human liver microsomes. The class given is in vitro ADME. The note with it: human liver microsomes 0.5 mg protein/mL, test compound 1 μM, 37° C.; read-out: T1/2 in HLM. The method, then: (§1) The metabolic stability of the compounds disclosed herein was determined by measuring half-life (T1/2) of the compounds in the presence of mouse liver microsomes (MLM) or human liver microsomes (BILM).
(§2) Intermediate solution: 5 μL of compound and control stock solution (10 mM in dimethyl sulfoxide (DMSO)) were diluted with 495 μL of acetonitrile (ACN) (intermediate solution concentration: 100 μM, 99% ACN).
(§3) Working solution: 50 μL of compound and control intermediate solution (100 μM) were diluted with 450 μL of 100 mM potassium phosphate buffer (working solution concentration: 10 μM, 9.9% ACN).
(§4) Controls used in this assay: Testosterone, Diclofenac, and Propafenone.
(§5) Preparation Procedure: The appropriate amount of NADPH powder was weighed and diluted into a 10 mM MgCl2 solution (working solution concentration: 10 unit/mL; final concentration in reaction system: 1 unit/mL).
(§6) The appropriate concentrations of microsome working solutions were prepared in 100 mM potassium phosphate buffer.
(§7) Cold (4° C.) acetonitrile (CAN) containing 200 ng/mL tolbutamide and 200 ng/mL labetalol as internal standards (IS) was used as the stop solution.
(§8) Using an Apricot automation workstation, 10 μL/well of compound working solution were added to all 96-well reaction plates except the blank (T0, T5, T10, T20, T30, T60, and NCF60).
(§9) An Apricot automation workstation was used to add 80 μL/well of microsome solution to all reaction plates (Blank, T0, T5, T10, T20, T30, T60, and NCF60).
(§10) All reaction plates containing mixtures of compound and microsomes were pre-incubated at 37° C. for 10 minutes.
(§11) An Apricot automation workstation was used to add 10 μL/well of 100 mM potassium phosphate buffer to reaction plate NCF60.
(§12) Reaction plate NCF60 was incubated at 37° C. for 60 minutes.
(§13) After pre-incubation, an Apricot automation workstation was used to add 10 μL/well of NADPH regenerating system to every reaction plate except NCF60 (Blank, T0, T5, T10, T20, T30, and T60) to start the reaction. Final concentration of each component in incubation medium: Microsome (0.5 mg protein/mL); Test Compound (1 μM); Control Compound (1 μM); Acetonitrile (0.99%); DMSO (0.01%).
(§14) The reaction plates were incubated at 37° C. for 0 minute (T0, stop solution was added prior to microsome and NADPH solutions), 5 minutes (T5), 10 minutes (T10), 20 minutes (T20), 30 minutes (T30), 60 minutes (T60).
(§15) An Apricot automation workstation was used to add 300 μL/well of stop solution to each reaction plate at its appropriate end time point to terminate the reaction.
(§16) Each plate was sealed and shaken for 10 minutes.
(§17) After shaking, each plate was centrifuged at 4000 rpm and 4° C. for 20 minutes.
(§18) During centrifugation, an Apricot automation workstation was used to add 300 µL/well of HPLC grade water to eight new 96-well plates.
(§19) After centrifugation, an Apricot automation workstation was used to transfer 100 μL of supernatant from each reaction plate to its corresponding bioanaylsis plate.
(§20) Each bioanalysis plate was sealed and shaken for 10 minutes prior to LC-MS/MS analysis.
(§21) The equation of first order kinetics was used to calculate T1/2 and CLint(mic) (μL/min/mg).

A short description of data set [4]: Metabolic stability in mouse liver microsomes. Format: in vitro ADME. The note with it: CD-1 mouse liver microsomes 0.5 mg protein/mL, test compound 1 μM, 37° C.; read-out: T1/2 in MLM. The method, then: as §1, §2, §3, §4, §5, §6, §7, §8, §9, §10, §11, §12, §13, §14, §15, §16, §17, §18, §19, §20, §21

With `Cn1cnnc1[C@@]1(N)c2ccc(Cl)c(c2)COc2cccc(c2)-c2cc(=O)n(C)c3ccc1cc23` [(S)-51, (S)-3-amino-4^4-chloro-2^1-methyl-3-(4-methyl-4H-1,2,4-triazol-3-yl)-2^1,2^2-dihydro-6-oxa-2(4,6)-quinolina-1,4(1,3)-dibenzenacyclohexaphan-2^2-one], the half-maximal inhibitory concentration (IC50) was not above 10 nM in data set [1], more than 1000 nM in data set [2] and 50 to 500 nM in the data set with T24/83 cells. For the same molecule, the half-life at 1 μM was more than 100 min in data set [3] and more than 15 min in data set [4].

For the molecule `Cn1cncc1[C@@]1(O)c2ccc(Cl)c(c2)CCc2cccc(c2)-c2cc(=O)n(C)c3ccc1cc23` [(S)-3, (S)-4^4-chloro-3-hydroxy-2^1-methyl-3-(1-methyl-1H-imidazol-5-yl)-2^1,2^2-dihydro-2(4,6)-quinolina-1,4(1,3)-dibenzenacyclohexaphan-2^2-one], the IC50 was not above 10 nM in data set [1], more than 1000 nM in data set [2] and not above 50 nM in the data set on T24/83 cells. Moreover, the half-life at 1 μM in data set [3] is less than 30 min; in data set [4], 5 to 15 min.

Turning to `Cn1cncc1[C@@](N)(c1ccc(Cl)cc1)c1ccc2c(c1)c(-c1cccc(Cl)c1)cc(=O)n2C` [Tipifarnib, tipifarnib, reference compound], the IC50 in data set [1] is not above 10 nM; in data set [2], more than 1000 nM; with T24/83 cells, not above 50 nM. Also, the half-life at 1 μM is less than 30 min in data set [3] and less than 5 min in data set [4].

On to `Cn1cncc1[C@@]1(O)c2ccc(C#N)c(c2)OCc2cccc(c2)-c2cc(=O)n(C)c3ccc1cc23` [(S)-18, (S)-3-hydroxy-2^1-methyl-3-(1-methyl-1H-imidazol-5-yl)-2^2-oxo-2^1,2^2-dihydro-5-oxa-2(4,6)-quinolina-1,4(1,3)-dibenzenacyclohexaphane-4^4-carbonitrile], for which the values for the IC50 (in data set [1]; in data set [2]; in the data set on T24/83 cells) were not above 10 nM, more than 1000 nM and not above 50 nM, respectively. Further, the half-life at 1 μM in data set [3] lay in the range of 30 to 100 min; in data set [4] it was 5 to 15 min.

Take `Cn1cncc1[C@@]1(N)c2ccc(C#N)c(c2)OCCc2cccc(c2)-c2cc(=O)n(C)c3ccc1cc23` [(S)-37, (S)-3-amino-2^1-methyl-3-(1-methyl-1H-imidazol-5-yl)-2^2-oxo-2^1,2^2-dihydro-5-oxa-2(4,6)-quinolina-1,4(1,3)-dibenzenacycloheptaphane-4^4-carbonitrile]: the results for the 50% inhibitory concentration (IC50) (in data set [1]; in data set [2]; with T24/83 cells) were not above 10 nM, more than 1000 nM and not above 50 nM, respectively. Further, the values for the half-life at 1 μM in data set [3] and in data set [4] were less than 30 min and less than 5 min, respectively.

In the case of `Cn1cncc1[C@@]1(N)c2ccc(Cl)c(c2)OCc2cccc(c2)-c2cc(=O)n(C)c3ccc1cc23` [(S)-15, (S)-3-amino-4^4-chloro-2^1-methyl-3-(1-methyl-1H-imidazol-5-yl)-2^1,2^2-dihydro-5-oxa-2(4,6)-quinolina-1,4(1,3)-dibenzenacyclohexaphan-2^2-one], the half-inhibitory concentration (IC50) in data set [1] was not above 10 nM; in data set [2] it was more than 1000 nM; in the data set with T24/83 cells, 50 to 500 nM. Also, the half-life at 1 μM in data set [3] is 30 to 100 min; in data set [4], less than 5 min.

For the molecule `Cn1cncc1[C@@]1(N)c2ccc(Cl)c(c2)OCCc2cccc(c2)-c2cc(=O)n(C)c3ccc1cc23` [(S)-27, (S)-3-amino-4^4-chloro-2^1-methyl-3-(1-methyl-1H-imidazol-5-yl)-2^1,2^2-dihydro-5-oxa-2(4,6)-quinolina-1,4(1,3)-dibenzenacycloheptaphan-2^2-one], the IC50 in data set [1] was not above 10 nM; in data set [2] it was more than 1000 nM; in the data set with T24/83 cells it was not above 50 nM. In addition, the half-life at 1 μM was less than 30 min in data set [3] and less than 5 min in data set [4].

Take `Cn1cncc1[C@@]1(N)c2ccc(Cl)c(c2)COc2cccc(c2)-c2cc(=O)n(C)c3ccc1cc23` [(S)-46, (S)-3-amino-4^4-chloro-2^1-methyl-3-(1-methyl-1H-imidazol-5-yl)-2^1,2^2-dihydro-6-oxa-2(4,6)-quinolina-1,4(1,3)-dibenzenacyclohexaphan-2^2-one]: the IC50 is not above 10 nM in data set [1], more than 1000 nM in data set [2] and not above 50 nM with T24/83 cells. The half-life at 1 μM was more than 100 min in data set [3] and 5 to 15 min in data set [4].

As to `Cn1cncc1[C@@]1(N)c2ccc(C#N)c(c2)COc2cccc(c2)-c2cc(C#N)nc3ccc1cc23` [(S)-58, (S)-3-amino-3-(1-methyl-1H-imidazol-5-yl)-6-oxa-2(4,6)-quinolina-1,4(1,3)-dibenzenacyclohexaphane-2^2 4^4-dicarbonitrile], the figures for the half-inhibitory concentration (IC50) (in data set [1]; in data set [2]; in the data set with T24/83 cells) were not above 10 nM, more than 1000 nM and not above 50 nM, respectively. Besides, the half-life at 1 μM in data set [3] is more than 100 min; in data set [4], more than 15 min.

For the molecule `Cn1cncc1[C@@]1(N)c2ccc(C#N)c(c2)CCc2cccc(c2)-c2cc(=O)n(C)c3ccc1cc23` [(R)-7, (R)-3-amino-2^1-methyl-3-(1-methyl-1H-imidazol-5-yl)-2^2-oxo-2^1,2^2-dihydro-2(4,6)-quinolina-1,4(1,3)-dibenzenacyclohexaphane-4^4-carbonitrile], the values for the 50% inhibitory concentration (IC50) (in data set [1]; in data set [2]; in the data set with T24/83 cells) were not above 10 nM, more than 1000 nM and not above 50 nM, respectively. In addition, the half-life at 1 μM is less than 30 min in data set [3] and 5 to 15 min in data set [4].

`Cn1cncc1[C@@]1(O)c2ccc(Cl)c(c2)OCc2cccc(c2)-c2cc(=O)n(C)c3ccc1cc23` [(S)-14, (S)-4^4-chloro-3-hydroxy-2^1-methyl-3-(1-methyl-1H-imidazol-5-yl)-2^1,2^2-dihydro-5-oxa-2(4,6)-quinolina-1,4(1,3)-dibenzenacyclohexaphan-2^2-one]: the IC50 was not above 10 nM in data set [1], more than 1000 nM in data set [2] and 50 to 500 nM in the data set on T24/83 cells. The half-life at 1 μM in data set [3] was 30 to 100 min; in data set [4], less than 5 min.
